# What was measured:
# [1] = Mutant factor of the compound against mu-[K303E] with Opioid receptor kappa 1 for binding affinity
# [2] = Mutant factor against mu-[K303E] with Opioid receptor kappa 1 for binding affinity
SMILES,Ki [1],Ki [2]
NC(N)=Nc1ccc2[nH]c3c(c2c1)C[C@@]1(O)[C@H]2Cc4ccc(O)c5c4[C@@]1(CCN2CC1CC1)[C@H]3O5,60 pM,–
"N#CN=C(N)Nc1ccc2[nH]c3c(c2c1)C[C@@]1(O)C2Cc4ccc(O)c5c4[C@@]1(CCN2CC1CC1)[C@H]3O5 [5'-[N-(N'-Cyano)guanidinyl]-17-cyclopropylmethyl-6,7-didehydro-4,5alpha-epoxy-3,14-dihydroxyindolo[2',3':6,7]morphinan]",–,290 pM
Oc1ccc2c3c1O[C@H]1c4[nH]c5c(c4C[C@@]4(O)[C@@H](C2)N(CC2CC2)CC[C@]314)C[C@@]1(O)[C@H]2Cc3ccc(O)c4c3[C@@]1(CCN2CC1CC1)[C@H]5O4 [C18130],–,770 pM
